According to US20260297542A1, “HERBICIDE RESISTANT PLANTS” (SYNGENTA CROP PROTECTION AG, priority 2023, published 2026):
Residue numbers refer to the chain shown, from its start.

Assays:
Assay in all cases: E. coli hemG growth inhibition by herbicide, AtPPO1 variant
Assay type in all cases: cell-based
Details in all cases: read-out: percentage growth inhibition
AtPPO1 Y426T = molecular target: T1, AtPPO1 Y426T (Arabidopsis thaliana, UniProt P55826, Y426T)
T1 construct: expressed in transfected cells; host or cells: E. coli BL21(DE3) hemG (pET24a, T7 promoter)
T1 sequence (P55826 35-537 Y426T): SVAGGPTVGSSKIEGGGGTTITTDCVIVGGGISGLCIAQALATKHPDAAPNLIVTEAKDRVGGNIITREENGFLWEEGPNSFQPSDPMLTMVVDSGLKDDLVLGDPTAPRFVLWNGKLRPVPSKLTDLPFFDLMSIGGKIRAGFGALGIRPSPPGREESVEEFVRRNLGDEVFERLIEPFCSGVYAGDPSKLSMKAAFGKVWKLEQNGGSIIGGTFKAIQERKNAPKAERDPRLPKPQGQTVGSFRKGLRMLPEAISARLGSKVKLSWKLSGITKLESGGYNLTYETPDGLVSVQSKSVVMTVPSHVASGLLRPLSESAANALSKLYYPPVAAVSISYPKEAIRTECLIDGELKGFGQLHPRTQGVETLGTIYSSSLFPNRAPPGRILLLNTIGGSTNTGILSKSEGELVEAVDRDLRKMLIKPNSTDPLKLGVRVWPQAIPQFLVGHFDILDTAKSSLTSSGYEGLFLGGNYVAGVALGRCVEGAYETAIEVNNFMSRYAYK
Summary of the method: (§1)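 Read-out is OD600 at 24 h post inoculation, converted to percent growth inhibition relative to DMSO. The hemG-deleted BL21(DE3) host relied on the plasmid-borne AtPPO1 variant, induced with 0.1 mM IPTG, with 6.25 ppm herbicide 0 or E or 0.78 ppm herbicide B present at 37° C.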

AtPPO1 T461Q = molecular target: T2, AtPPO1 T461Q (Arabidopsis thaliana, UniProt P55826, T461Q)
T2 construct: expressed in transfected cells; host or cells: E. coli BL21(DE3) hemG, pET24a plasmid
T2 sequence (P55826 35-537 T461Q): T1 sequence (P55826 35-537 Y426T) with T392Y, T427Q
Summary of the method: as §1

AtPPO1 K173H = molecular target: T3, AtPPO1 K173H (Arabidopsis thaliana, UniProt P55826, K173H)
T3 construct: expressed in transfected cells; host or cells: E. coli BL21(DE3) hemG (hemG replaced by CmR), pET24a plasmid
T3 sequence (P55826 35-537 K173H): T1 sequence (P55826 35-537 Y426T) with K139H, T392Y
Summary of the method: as §1

AtPPO1 P418M = molecular target: T4, AtPPO1 P418M (Arabidopsis thaliana, UniProt P55826, P418M)
T4 construct: expressed in transfected cells; host or cells: E. coli BL21(DE3) hemG (pET24a, T7 promoter)
T4 sequence (P55826 35-537 P418M): T1 sequence (P55826 35-537 Y426T) with P384M, T392Y
Summary of the method: as §1

Row | SMILES | inhibition at 6.25 ppm (AtPPO1 Y426T) [%] | inhibition at 6.25 ppm (AtPPO1 T461Q) [%] | inhibition at 6.25 ppm (AtPPO1 K173H) [%] | inhibition at 6.25 ppm (AtPPO1 P418M) [%] | inhibition at 0.78 ppm (AtPPO1 Y426T) [%] | inhibition at 0.78 ppm (AtPPO1 T461Q) [%] | inhibition at 0.78 ppm (AtPPO1 K173H) [%] | inhibition at 0.78 ppm (AtPPO1 P418M) [%]
1 | CC(C)N(C)S(=O)(=O)NC(=O)c1cc(-n2c(=O)cc(C(F)(F)F)n(C)c2=O)c(F)cc1Cl [Herbicide E, saflufenacil] | 11 | 35 | 55 | 64 | – | – | – | –
2 | C#CCN1C(=O)C(F)(F)Oc2cc(F)c(-n3c(=O)n(C)c(=S)n(C)c3=O)cc21 [Herbicide B, trifludimoxazin] | – | – | – | – | 8 | 31 | 29 | 12
3 | CCOC(=O)[C@]1(C)CC(c2cc(-n3c(=O)n(C)c(=S)n(C)c3=O)c(F)cc2Cl)=NO1 [Herbicide D, ethyl (5S)-3-[2-chloro-5-(3,5-dimethyl-2,6-dioxo-4-thioxo-1,3,5-triazinan-1-yl)-4-fluoro-phenyl]-5-methyl-4H-isoxazole-5-carboxylate] | 12 | 22 | 34 | 25 | – | – | – | –
